Assay results from patent US20250042857A1, “SOS1 Inhibitor With Pyrido-Fused Six-Membered Ring Structure” (HAIHE BIOPHARMA CO., LTD., priority 2021, published 2025).
Each block holds one compound with its values, some of them ahead of it.

What was measured:
p-ERK of PC-9 cells = assay: p-ERK HTRF assay in PC-9 cells; type: cell-based; settings: Homo sapiens, PC-9, 1 h, PC-9 lung cancer cells, 1 hour treatment, read-out: IC50, inhibitory activity on p-ERK of PC-9 cells
Summary of the method: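 PC-9 lung cancer cells plated overnight, then exposed 1 h at 37 °C to a 10-point compound series (10,000–[…] nM final, 0.1% DMSO). After 1 h lysis, phospho-ERK1/2 (Thr202/Tyr204) measured by HTRF at 665/615 nm. Percent inhibition calculated from max and min signals.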

KRAS-G12C/SOS1 = KRAS-G12C/SOS1 (Homo sapiens (Human), UniProt Q07889); assay: Detection of inhibitory effects of compounds on KRAS-G12C/SOS1 (KRASG12C/SOS binding kit, HTRF); settings: Em665/620, read-out: IC50, inhibitory activity on interaction of KRAS-G12C/SOS1
Summary of the method: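 HTRF binding of Tag2-KRAS-G12C to Tag1-SOS1 with compounds (10-point 3-fold dilution from 5,000 nM) for 15 min at room temperature, then anti-Tag1-Tb and anti-Tag2-XL665 for 120 min at 4° C. Em665/620 read; inhibition normalised to control wells, IC50 from variable-slope log(inhibitor) fit.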

Chain of KRAS-G12C/SOS1 (Q07889 whole entry, stated change not applied): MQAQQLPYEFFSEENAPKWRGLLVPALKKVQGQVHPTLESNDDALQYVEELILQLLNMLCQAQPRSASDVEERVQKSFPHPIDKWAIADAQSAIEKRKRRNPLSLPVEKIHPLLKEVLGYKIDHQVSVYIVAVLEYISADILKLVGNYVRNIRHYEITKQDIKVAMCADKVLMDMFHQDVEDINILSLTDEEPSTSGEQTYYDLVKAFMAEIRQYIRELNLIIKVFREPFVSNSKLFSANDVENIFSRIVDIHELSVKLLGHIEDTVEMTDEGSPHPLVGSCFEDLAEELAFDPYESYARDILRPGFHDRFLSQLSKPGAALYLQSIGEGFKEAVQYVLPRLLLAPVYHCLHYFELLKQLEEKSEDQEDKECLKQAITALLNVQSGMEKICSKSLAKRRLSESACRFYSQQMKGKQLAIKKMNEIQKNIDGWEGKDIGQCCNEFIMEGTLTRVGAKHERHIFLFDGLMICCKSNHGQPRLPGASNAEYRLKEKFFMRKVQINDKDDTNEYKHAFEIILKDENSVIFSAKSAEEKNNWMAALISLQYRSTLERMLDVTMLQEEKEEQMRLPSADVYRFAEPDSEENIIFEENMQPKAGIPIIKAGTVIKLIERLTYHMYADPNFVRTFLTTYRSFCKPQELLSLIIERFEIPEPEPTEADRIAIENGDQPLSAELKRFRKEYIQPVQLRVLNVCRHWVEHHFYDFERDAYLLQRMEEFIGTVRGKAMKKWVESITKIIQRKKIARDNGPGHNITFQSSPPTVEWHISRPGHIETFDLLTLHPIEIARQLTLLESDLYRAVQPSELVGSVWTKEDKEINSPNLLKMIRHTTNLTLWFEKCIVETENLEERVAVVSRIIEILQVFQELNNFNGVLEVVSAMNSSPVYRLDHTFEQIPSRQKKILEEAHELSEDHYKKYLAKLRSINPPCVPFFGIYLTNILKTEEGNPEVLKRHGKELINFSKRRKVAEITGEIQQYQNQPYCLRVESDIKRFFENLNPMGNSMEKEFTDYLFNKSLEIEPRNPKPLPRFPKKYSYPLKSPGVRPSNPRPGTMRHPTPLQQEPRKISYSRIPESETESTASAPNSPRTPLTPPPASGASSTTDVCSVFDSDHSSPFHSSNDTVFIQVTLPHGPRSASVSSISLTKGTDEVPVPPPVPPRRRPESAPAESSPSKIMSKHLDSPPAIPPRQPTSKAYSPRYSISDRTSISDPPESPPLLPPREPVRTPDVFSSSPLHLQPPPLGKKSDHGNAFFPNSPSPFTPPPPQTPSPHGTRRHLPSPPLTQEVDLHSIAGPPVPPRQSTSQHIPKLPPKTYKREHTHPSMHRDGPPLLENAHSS

SMILES: Cc1cc(N[C@H](C)c2cccc(C(F)F)c2F)c2cc(N3CCCS3(=O)=O)ncc2n1 [Compound B-72]
IC50 (p-ERK of PC-9 cells): 0.3 to 1 µM
IC50 (KRAS-G12C/SOS1): ≤ 0.1 µM

SMILES: C[C@@H](Nc1ccnc2cnc(N3CCC(O)(CN)CC3)cc12)c1cccc(C(F)F)c1F [Compound B-75]
IC50 (p-ERK of PC-9 cells): 0.3 to 1 µM
IC50 (KRAS-G12C/SOS1): ≤ 0.1 µM

SMILES: C[C@@H](Nc1ccnc2cnc(C3(O)CCS(=O)(=O)CC3)cc12)c1cccc(C(F)F)c1F [Compound B-91]
IC50 (p-ERK of PC-9 cells): 0.3 to 1 µM
IC50 (KRAS-G12C/SOS1): ≤ 0.1 µM

SMILES: C[C@@H](Nc1ccnc2cnc(C3(O)CCOCC3)cc12)c1cccc(C(F)F)c1F [Compound B-103]
IC50 (p-ERK of PC-9 cells): 0.3 to 1 µM
IC50 (KRAS-G12C/SOS1): ≤ 0.1 µM

SMILES: COC1(c2cc3c(N[C@H](C)c4cccc(C(F)F)c4F)ccnc3cn2)CCOCC1 [Compound B-104]
IC50 (p-ERK of PC-9 cells): 0.3 to 1 µM
IC50 (KRAS-G12C/SOS1): ≤ 0.1 µM

SMILES: C[C@@H](Nc1ccnc2cnc(C3(O)CCN(CCO)CC3)cc12)c1cccc(C(F)F)c1F [Compound B-117]
IC50 (p-ERK of PC-9 cells): 0.3 to 1 µM
IC50 (KRAS-G12C/SOS1): ≤ 0.1 µM

SMILES: CNCC(=O)N1CCC(O)(c2cc3c(N[C@H](C)c4cccc(C(F)F)c4F)ccnc3cn2)CC1 [Compound B-122]
IC50 (p-ERK of PC-9 cells): > 1 µM
IC50 (KRAS-G12C/SOS1): ≤ 0.1 µM

SMILES: C[C@H](O)C(=O)N1CCC(O)(c2cc3c(N[C@H](C)c4cccc(C(C)(F)F)c4F)ccnc3cn2)CC1 [Compound B-125]
IC50 (p-ERK of PC-9 cells): ≤ 0.3 µM
IC50 (KRAS-G12C/SOS1): ≤ 0.1 µM

SMILES: C[C@H](O)C(=O)N1CCC(O)(c2cc3c(N[C@H](C)c4cccc(C(F)(F)F)c4F)ccnc3cn2)CC1 [Compound B-126]
IC50 (p-ERK of PC-9 cells): ≤ 0.3 µM
IC50 (KRAS-G12C/SOS1): ≤ 0.1 µM

SMILES: C[C@@H](Nc1ccnc2cnc(C3(O)CCN(C(=O)C4(C#N)CC4)CC3)cc12)c1cccc(C(F)F)c1F [Compound B-127]
IC50 (p-ERK of PC-9 cells): ≤ 0.3 µM
IC50 (KRAS-G12C/SOS1): ≤ 0.1 µM

SMILES: C[C@@H](Nc1ccnc2cnc(C3(O)CCN(C(=O)C4CC4)CC3)cc12)c1cccc(C(F)F)c1F [Compound B-128]
IC50 (p-ERK of PC-9 cells): ≤ 0.3 µM
IC50 (KRAS-G12C/SOS1): ≤ 0.1 µM

SMILES: C[C@@H](Nc1ccnc2cnc(C3(O)CCN(C(=O)c4ccccn4)CC3)cc12)c1cccc(C(F)F)c1F [Compound B-129]
IC50 (p-ERK of PC-9 cells): 0.3 to 1 µM
IC50 (KRAS-G12C/SOS1): ≤ 0.1 µM

SMILES: C[C@@H](Nc1ccnc2cnc(C3(O)CCN(C(=O)c4cccnc4)CC3)cc12)c1cccc(C(F)F)c1F [Compound B-130]
IC50 (p-ERK of PC-9 cells): 0.3 to 1 µM
IC50 (KRAS-G12C/SOS1): ≤ 0.1 µM

SMILES: C[C@@H](Nc1ccnc2cnc(C3(O)CCN(C(=O)c4ccncc4)CC3)cc12)c1cccc(C(F)F)c1F [Compound B-131]
IC50 (p-ERK of PC-9 cells): ≤ 0.3 µM
IC50 (KRAS-G12C/SOS1): ≤ 0.1 µM

SMILES: C[C@@H](Nc1ccnc2cnc(C3(O)CCN(C(=O)C4COC4)CC3)cc12)c1cccc(C(F)F)c1F [Compound B-132]
IC50 (p-ERK of PC-9 cells): ≤ 0.3 µM
IC50 (KRAS-G12C/SOS1): ≤ 0.1 µM

SMILES: C[C@@H](Nc1ccnc2cnc(C3(O)CCN(C(=O)[C@@H]4CCOC4)CC3)cc12)c1cccc(C(F)F)c1F [Compound B-133]
IC50 (p-ERK of PC-9 cells): ≤ 0.3 µM
IC50 (KRAS-G12C/SOS1): ≤ 0.1 µM

SMILES: C[C@@H](Nc1ccnc2cnc(C3(O)CCN(C(=O)[C@H]4CCOC4)CC3)cc12)c1cccc(C(F)F)c1F [Compound B-134]
IC50 (p-ERK of PC-9 cells): ≤ 0.3 µM
IC50 (KRAS-G12C/SOS1): ≤ 0.1 µM

SMILES: C[C@@H](Nc1ccnc2cnc(C3(O)CCN(C(=O)C4CCOCC4)CC3)cc12)c1cccc(C(F)F)c1F [Compound B-135]
IC50 (p-ERK of PC-9 cells): 0.3 to 1 µM
IC50 (KRAS-G12C/SOS1): ≤ 0.1 µM

SMILES: C[C@@H](Nc1ccnc2cnc(C3(O)CCN(C(=O)[C@H]4CNCCO4)CC3)cc12)c1cccc(C(F)F)c1F [Compound B-136]
IC50 (p-ERK of PC-9 cells): > 1 µM
IC50 (KRAS-G12C/SOS1): ≤ 0.1 µM

SMILES: C[C@@H](Nc1ccnc2cnc(C3(O)CCN(C(=O)[C@@H]4CNCCO4)CC3)cc12)c1cccc(C(F)F)c1F [Compound B-137]
IC50 (p-ERK of PC-9 cells): > 1 µM
IC50 (KRAS-G12C/SOS1): ≤ 0.1 µM

SMILES: C[C@@H](Nc1ccnc2cnc(C3(O)CCN(C(=O)Cc4cccnc4)CC3)cc12)c1cccc(C(F)F)c1F [Compound B-138]
IC50 (p-ERK of PC-9 cells): ≤ 0.3 µM
IC50 (KRAS-G12C/SOS1): ≤ 0.1 µM

SMILES: C[C@@H](Nc1ccnc2cnc(C3(O)CCN(C(=O)Cc4ccncc4)CC3)cc12)c1cccc(C(F)F)c1F [Compound B-139]
IC50 (p-ERK of PC-9 cells): ≤ 0.3 µM
IC50 (KRAS-G12C/SOS1): ≤ 0.1 µM

SMILES: C[C@@H](Nc1ccnc2cnc(C3(O)CCN(C(=O)C[C@@H]4CCOC4)CC3)cc12)c1cccc(C(F)F)c1F [Compound B-140]
IC50 (p-ERK of PC-9 cells): ≤ 0.3 µM
IC50 (KRAS-G12C/SOS1): ≤ 0.1 µM

Second part, the compound after the results:

IC50 (p-ERK of PC-9 cells): ≤ 0.3 µM
IC50 (KRAS-G12C/SOS1): ≤ 0.1 µM
SMILES: COc1nc(N2CCN(C(C)=O)CC2)cc2c(N[C@H](C)c3cccc(C(F)F)c3F)ccnc12 [Compound B-73]

IC50 (p-ERK of PC-9 cells): ≤ 0.3 µM
IC50 (KRAS-G12C/SOS1): ≤ 0.1 µM
SMILES: C[C@@H](Nc1ccnc2cnc(N3CCC(O)(CO)CC3)cc12)c1cccc(C(F)F)c1F [Compound B-74]

IC50 (p-ERK of PC-9 cells): ≤ 0.3 µM
IC50 (KRAS-G12C/SOS1): ≤ 0.1 µM
SMILES: CNC(=O)C1(O)CCN(c2cc3c(N[C@H](C)c4cccc(C(F)F)c4F)ccnc3cn2)CC1 [Compound B-76]

IC50 (p-ERK of PC-9 cells): ≤ 0.3 µM
IC50 (KRAS-G12C/SOS1): ≤ 0.1 µM
SMILES: C[C@@H](Nc1ccnc2cnc(N3C[C@H](O)C[C@H]3CO)cc12)c1cccc(C(F)F)c1F [Compound B-78]

IC50 (p-ERK of PC-9 cells): ≤ 0.3 µM
IC50 (KRAS-G12C/SOS1): ≤ 0.1 µM
SMILES: C[C@@H]1OCC2(CCN(c3cc4c(N[C@H](C)c5cccc(C(F)F)c5F)ccnc4cn3)CC2)[C@@H]1N [Compound B-79]

IC50 (p-ERK of PC-9 cells): ≤ 0.3 µM
IC50 (KRAS-G12C/SOS1): ≤ 0.1 µM
SMILES: COC1(c2cc3c(N[C@H](C)c4cccc(C(F)F)c4F)ccnc3cn2)CCC(O)CC1 (some centres unmarked) [Compound B-82]

IC50 (p-ERK of PC-9 cells): ≤ 0.3 µM
IC50 (KRAS-G12C/SOS1): ≤ 0.1 µM
SMILES: C[C@@H](Nc1ccnc2cnc(-c3ccc(=O)n(C)c3)cc12)c1cccc(C(F)F)c1F [Compound B-107]

IC50 (p-ERK of PC-9 cells): ≤ 0.3 µM
IC50 (KRAS-G12C/SOS1): ≤ 0.1 µM
SMILES: C[C@@H](Nc1ccnc2cnc(-c3ccn(C)c(=O)c3)cc12)c1cccc(C(F)F)c1F [Compound B-108]

IC50 (p-ERK of PC-9 cells): ≤ 0.3 µM
IC50 (KRAS-G12C/SOS1): ≤ 0.1 µM
SMILES: CC(=O)N1CC=C(c2cc3c(N[C@H](C)c4cccc(C(F)F)c4F)ccnc3cn2)C1 [Compound B-109]

IC50 (p-ERK of PC-9 cells): ≤ 0.3 µM
IC50 (KRAS-G12C/SOS1): ≤ 0.1 µM
SMILES: CC(=O)N1CCC(c2cc3c(N[C@H](C)c4cccc(C(F)F)c4F)ccnc3cn2)C1 (some centres unmarked) [Compound B-110]

IC50 (p-ERK of PC-9 cells): ≤ 0.3 µM
IC50 (KRAS-G12C/SOS1): ≤ 0.1 µM
SMILES: CC(=O)N1CCN(c2cc3c(N[C@H](C)c4cccc(C(F)F)c4F)c(F)cnc3cn2)CC1 [Compound B-111]

IC50 (p-ERK of PC-9 cells): ≤ 0.3 µM
IC50 (KRAS-G12C/SOS1): ≤ 0.1 µM
SMILES: CC(=O)N1CCC(O)(c2cc3c(N[C@H](C)c4cccc(C(F)(F)F)c4F)ccnc3cn2)CC1 [Compound B-112]

IC50 (p-ERK of PC-9 cells): ≤ 0.3 µM
IC50 (KRAS-G12C/SOS1): ≤ 0.1 µM
SMILES: C[C@@H](Nc1ccnc2cnc(C3(O)CCN(C(=O)CO)CC3)cc12)c1cccc(C(F)F)c1F [Compound B-113]

IC50 (p-ERK of PC-9 cells): ≤ 0.3 µM
IC50 (KRAS-G12C/SOS1): ≤ 0.1 µM
SMILES: COCC(=O)N1CCC(O)(c2cc3c(N[C@H](C)c4cccc(C(F)F)c4F)ccnc3cn2)CC1 [Compound B-114]

IC50 (p-ERK of PC-9 cells): ≤ 0.3 µM
IC50 (KRAS-G12C/SOS1): ≤ 0.1 µM
SMILES: C[C@@H](Nc1ccnc2cnc(C3(O)CCN(C(=O)CC#N)CC3)cc12)c1cccc(C(F)F)c1F [Compound B-116]

IC50 (p-ERK of PC-9 cells): ≤ 0.3 µM
IC50 (KRAS-G12C/SOS1): ≤ 0.1 µM
SMILES: C[C@@H](Nc1ccnc2cnc(C3(O)CCN(C(=O)CO)CC3)cc12)c1cccc(C(F)(F)F)c1F [Compound B-118]

IC50 (p-ERK of PC-9 cells): ≤ 0.3 µM
IC50 (KRAS-G12C/SOS1): ≤ 0.1 µM
SMILES: C[C@H](O)C(=O)N1CCC(O)(c2cc3c(N[C@H](C)c4cccc(C(F)F)c4F)ccnc3cn2)CC1 [Compound B-119]

IC50 (p-ERK of PC-9 cells): ≤ 0.3 µM
IC50 (KRAS-G12C/SOS1): ≤ 0.1 µM
SMILES: C[C@@H](Nc1ccnc2cnc(C3(O)CCN(C(=O)C(C)(C)O)CC3)cc12)c1cccc(C(F)F)c1F [Compound B-121]

IC50 (p-ERK of PC-9 cells): ≤ 0.3 µM
IC50 (KRAS-G12C/SOS1): ≤ 0.1 µM
SMILES: C[C@@H](Nc1c(F)cnc2cnc(C3(O)CCN(C(=O)CO)CC3)cc12)c1cccc(C(F)F)c1F [Compound B-123]

IC50 (p-ERK of PC-9 cells): ≤ 0.3 µM
IC50 (KRAS-G12C/SOS1): ≤ 0.1 µM
SMILES: C[C@H](O)C(=O)N1CCC(O)(c2cc3c(N[C@H](C)c4cccc(C(F)F)c4F)c(F)cnc3cn2)CC1 [Compound B-124]
